From patent US20030171347A1, “Sigma receptor antagonists having anti-cocaine properties and uses thereof” (priority 1998, published 2003)

Legend:
[1] = system: Male, Swiss Webster mice; assay: Dose response for the behavioral toxic effects of cocaine (convulsions, death)
[2] = system: Male, Swiss Webster mice; assay: Shift of the cocaine convulsion dose curve by sigma receptor agonists; conditions: saline pre-treatment, cocaine 0-60 mg/kg i.p.
[3] = system: Male, Swiss Webster mice; assay: Dose response for the locomotor stimulatory effects of cocaine; type: in vivo; conditions: cocaine 0-20 mg/kg i.p., 30 min
[4] = system: Male, Swiss Webster mice; assay: Attenuation of cocaine-induced locomotor activity; type: in vivo; conditions: saline pre-treatment, cocaine 0-20 mg/kg i.p.
[5] = after lethal dose of cocaine 125 mg/kg i.p.
[6] = cocaine alone 0-150 mg/kg i.p., observed 30 min

COC(=O)[C@H]1[C@@H](OC(=O)c2ccccc2)C[C@@H]2CC[C@H]1N2C [cocaine]
time at which mice are dead [1, 5]: about 4.5 minutes
time at which mice begin convulsing [1, 5]: approximately 2 minutes
ED50 for cocaine-induced convulsions [1, 6]: 59 mg/kg, i.p.
LD50 for cocaine-induced lethality [1, 6]: 108 mg/kg, i.p.
ED50 for cocaine-induced convulsions [2]: 58 mg/kg, i.p.
dose that produced the peak level of locomotor activity [3]: 10 mg/kg, i.p.
ED50 for the locomotor stimulatory effects of cocaine [4]: 6 mg/kg, i.p.
